Measured values published in publication PMC4089508 (Bioorganic & medicinal chemistry, 2014).

Legend:
[1] = system: cellular microtubules in A-10 cells; test: Loss of cellular microtubules, indirect immunofluorescence in A-10 cells; type: cell-based
[2] = system: MDA-MB-435 flank xenograft; test: MDA-MB-435 flank xenograft model; type: in vivo, NCr athymic nu/nu mice; settings: vs carrier treated mice
[3] = system: 4T1 orthotopic allograft; test: 4T1 triple negative breast orthotopic allograft model; settings: 4T1 orthotopic model
[4] = system: HeLa cells; test: Cell cycle analysis by flow cytometry; type: cell-based; settings: 40 and 50 nM 11, 75 and 100 nM 21, 18 h
[5] = molecular target: purified porcine brain tubulin (Sus scrofa, UniProt P02554); test: In vitro tubulin polymerization; settings: 10 μM compound
[6] = system: SK-OV-3 MDR-1/M-6-6; test: cells; settings: Homo sapiens, SKOV3-MDR1-M6/6, read-out: Antiproliferative activity IC50, SK-OV-3 MDR-1/M-6-6
[7] = system: HUVEC endothelial cells; test: Breast cancer/endothelial cell IC50, HUVEC; type: cell-based; settings: Homo sapiens, read-out: IC50, HUVEC
[8] = system: MDA-MB-435; test: Breast cancer/endothelial cell IC50, MDA-MB-435; type: cell-based; settings: Homo sapiens, MDA-MB-435, read-out: IC50, MDA-MB-435
[9] = system: MCF-7; test: Breast cancer/endothelial cell IC50, MCF-7; type: cell-based; settings: Homo sapiens, MCF7, read-out: IC50, MCF-7
[10] = system: MDA-MB-231; test: Breast cancer/endothelial cell IC50, MDA-MB-231; type: cell-based; settings: Homo sapiens, MDA-MB-231, read-out: IC50, MDA-MB-231
[11] = system: 4T-1; test: Breast cancer/endothelial cell IC50, 4T-1; type: cell-based, murine; settings: Mus musculus, 4T1, read-out: IC50, 4T-1
[12] = system: SK-OV-3 MDR-1/M-6-6; settings: other colchicine site agents; cited from earlier work
[13] = system: MDA-MB-435 cells; test: Apoptosis detection, Western blot of cleaved PARP; type: cell-based, human

Sequence of purified porcine brain tubulin (P02554 whole entry): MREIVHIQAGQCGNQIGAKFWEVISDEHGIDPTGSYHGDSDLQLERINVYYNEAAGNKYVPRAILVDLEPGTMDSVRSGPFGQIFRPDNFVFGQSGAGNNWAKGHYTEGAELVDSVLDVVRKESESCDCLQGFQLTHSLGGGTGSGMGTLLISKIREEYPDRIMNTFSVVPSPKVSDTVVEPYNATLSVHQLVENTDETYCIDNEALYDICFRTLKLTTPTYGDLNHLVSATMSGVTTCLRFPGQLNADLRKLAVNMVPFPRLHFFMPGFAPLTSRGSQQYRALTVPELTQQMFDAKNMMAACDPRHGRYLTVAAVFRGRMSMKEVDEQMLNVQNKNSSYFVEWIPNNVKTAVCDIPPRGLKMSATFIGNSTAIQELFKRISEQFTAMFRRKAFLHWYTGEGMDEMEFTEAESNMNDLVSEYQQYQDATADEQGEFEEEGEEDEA
Sequence of purified porcine brain tubulin (P02550 whole entry, further chain): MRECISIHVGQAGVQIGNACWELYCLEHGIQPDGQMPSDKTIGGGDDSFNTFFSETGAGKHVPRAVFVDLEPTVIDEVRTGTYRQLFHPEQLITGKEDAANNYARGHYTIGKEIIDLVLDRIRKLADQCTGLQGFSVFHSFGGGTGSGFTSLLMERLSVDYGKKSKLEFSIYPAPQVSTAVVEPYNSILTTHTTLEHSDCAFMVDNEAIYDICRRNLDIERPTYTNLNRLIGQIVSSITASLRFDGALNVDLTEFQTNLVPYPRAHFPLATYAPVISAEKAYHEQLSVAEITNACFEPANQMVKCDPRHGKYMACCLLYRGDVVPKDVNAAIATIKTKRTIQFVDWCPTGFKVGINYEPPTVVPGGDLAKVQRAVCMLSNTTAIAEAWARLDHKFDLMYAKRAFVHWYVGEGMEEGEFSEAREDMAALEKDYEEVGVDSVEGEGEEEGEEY

**Q.** With `COc1ccc(N(C)c2nc(C)nc3oc(C)cc23)cc1.Cl` [Compound 21, N-(4-methoxyphenyl)-N,2,6-trimethylfuro[2,3-d]pyrimidin-4-amine hydrochloride] as the compound, how does the “effect on cellular microtubules” value [1] read?
**A.** dose-dependent loss of cellular microtubules

**Q.** What about the EC50 ([1]; read-out: EC50 for microtubule depolymerization, 18 h, 50% loss of cellular microtubules) of the same compound?
**A.** 570 nM

**Q.** What about the “tumor vascular density (CD31/PECAM-1 staining)” value [2] of the same compound?
**A.** decreased tumor vascular density

**Q.** What about the animal weight loss [3] of the same compound?
**A.** less weight loss than docetaxel

**Q.** What about the primary tumor growth ([3]; 21 twice weekly at MTD) of the same compound?
**A.** as active as docetaxel at reducing primary tumor growth

**Q.** And the lung metastases ([3]; compared to docetaxel)?
**A.** reduced the size (Figure 9D; metastases at arrows) but not the number

**Q.** And the “effect on cell cycle distribution (G2/M)” value [4]?
**A.** initiated dose-dependent mitotic accumulation

**Q.** What about the “inhibition of polymerization of purified tubulin” value [5] of the same compound?
**A.** almost completely inhibited the polymerization of tubulin

**Q.** With `CCCCN(c1ccc(OC)cc1)c1nc(C)nc2oc(C)cc12` [Compound 14, N-butyl-N-(4-methoxyphenyl)-2,6-dimethylfuro[2,3-d]pyrimidin-4-amine] as the compound, how does the IC50 [6] read?
**A.** > 10000 nM

**Q.** What does the source list for `COc1ccc(/C=C\c2cc(OC)c(OC)c(OC)c2)cc1O` [CA-4, combretastatin A-4]?
**A.** IC50 [7]: 17.7 ± 3.6 nM; IC50 [8]: 52.2 nM; IC50 [9]: 24.9 ± 1.4 nM; IC50 [10]: 228 ± 2.9 nM; IC50 [11]: 69.6 ± 8 nM

**Q.** For `COc1cc2c(cc1O)CC[C@@H]1[C@@H]2CC[C@]2(C)[C@@H](O)CC[C@@H]12` [2-methoxyestradiol], which “Rr (relative resistance), Pgp-expressing SK-OV-3 pair” value [12] is on record?
**A.** 1.5–2.6

**Q.** Which “cleaved PARP level” value ([13]; 75 nM 11, 18 h) does the source give for `COc1ccc(N(C)c2nc(C)nc3oc(C)cc23)cc1` [Compound 11, N-(4-methoxyphenyl)-N,2,6-trimethylfuro[2,3-d]pyrimidin-4-amine] here?
**A.** slight increase in cleaved PARP

**Q.** What about the “cleaved PARP level” value ([13]; 36 h, 75 nM 11, 120 nM 21) of the same compound?
**A.** much higher levels of cleaved PARP

**Q.** What about the “effect on cell cycle distribution (G2/M)” value [4] of the same compound?
**A.** initiated mitotic accumulation

**Q.** What about the “inhibition of polymerization of purified tubulin” value [5] of the same compound?
**A.** almost completely inhibited the polymerization of tubulin

**Q.** For `COc1ccc(Nc2nc(C)nc3oc(C)cc23)cc1` [Compound 10, N-(4-methoxyphenyl)-2,6-dimethylfuro[2,3-d]pyrimidin-4-amine], which “effect on cellular microtubules” value [1] is on record?
**A.** inactive
